Assay results published in patent US20260137703A1, “2-AMINO-PYRIDO[2,3-D]PYRIMIDIN-7(8H)-ONE AND 7-AMINO-1-PYRIMIDO[4,5-D]PYRIMIDIN-2(1 H)-ONE DERIVATIVES AS EGFR INHIBITORS FOR THE TREATMENT OF CANCER” (Cancer Research Technology Limited, priority 2022, published 2026).
pIC50: −log10 of the molar value.

Legend:
[1] = molecular target: T1, Phospho-EGFR (Tyr1068) in H1975 cells (Homo sapiens, UniProt P00533, L858R/T790M); test: HTRF pEGFR/total EGFR in H1975 cells; format: cell-based; details: ratio pEGFR/total EGFR, compound 3 hours
T1 construct: host or cells: H1975
T1 sequence (P00533 25-1210 T790M/L858R): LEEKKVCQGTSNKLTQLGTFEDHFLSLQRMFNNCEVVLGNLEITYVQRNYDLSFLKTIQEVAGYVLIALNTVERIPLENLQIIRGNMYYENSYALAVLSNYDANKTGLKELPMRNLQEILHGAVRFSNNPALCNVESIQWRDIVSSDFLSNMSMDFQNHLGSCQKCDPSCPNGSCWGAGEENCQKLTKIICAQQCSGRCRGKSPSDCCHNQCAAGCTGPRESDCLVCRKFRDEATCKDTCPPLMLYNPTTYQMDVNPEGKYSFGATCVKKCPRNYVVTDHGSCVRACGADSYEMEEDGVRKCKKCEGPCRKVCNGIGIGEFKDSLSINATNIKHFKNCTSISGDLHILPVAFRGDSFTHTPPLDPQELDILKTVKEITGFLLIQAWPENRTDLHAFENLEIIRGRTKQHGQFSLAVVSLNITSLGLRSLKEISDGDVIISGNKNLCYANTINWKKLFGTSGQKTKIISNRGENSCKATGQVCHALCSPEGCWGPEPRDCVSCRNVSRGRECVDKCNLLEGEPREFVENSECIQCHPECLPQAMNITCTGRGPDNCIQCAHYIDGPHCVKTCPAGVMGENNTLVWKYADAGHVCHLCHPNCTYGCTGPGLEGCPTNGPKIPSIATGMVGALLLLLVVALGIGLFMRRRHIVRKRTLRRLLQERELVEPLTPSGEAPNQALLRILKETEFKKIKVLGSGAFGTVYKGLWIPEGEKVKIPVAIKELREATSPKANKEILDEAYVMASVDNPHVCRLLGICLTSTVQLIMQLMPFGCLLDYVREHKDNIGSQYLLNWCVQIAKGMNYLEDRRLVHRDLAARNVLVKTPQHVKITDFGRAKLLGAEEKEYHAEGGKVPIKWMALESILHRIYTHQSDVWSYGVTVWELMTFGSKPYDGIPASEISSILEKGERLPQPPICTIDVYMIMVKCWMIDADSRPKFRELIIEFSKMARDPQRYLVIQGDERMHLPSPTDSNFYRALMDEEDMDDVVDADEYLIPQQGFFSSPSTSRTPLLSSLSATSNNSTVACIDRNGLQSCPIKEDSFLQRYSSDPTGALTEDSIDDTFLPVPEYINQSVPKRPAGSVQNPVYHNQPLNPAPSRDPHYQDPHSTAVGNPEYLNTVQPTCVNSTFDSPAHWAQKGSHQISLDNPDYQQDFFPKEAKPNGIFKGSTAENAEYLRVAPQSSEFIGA
Description: (§1) H1975 cells (ATCC CRL-5908) were plated at 20,000 cells per well in 96 well plates and placed at 37° C. 5% CO2. Once adhered (after 24 h) cells were treated with compounds dissolved in DMSO at a final concentration of 0.1% DMSO in media. Compounds were diluted in media then added to cells for 3 hours in duplicate. Compound and media were removed from the cells, then 50 ul of HTRF lysis buffer is added (lysis buffer was diluted from 4× stock to 1× in DI water, with 1% blocking agent also added). Cells were lysed on a plate shaker (2000 rpm) for 30 minutes at room temperature. pEGFR expression was monitored using the Cisbio Phospho-EGFR (Tyri068) cellular kit (64EG1PEH). Total EGFR expression was monitored using the Cisbio Total EGFR cellular kit (64NG1PEH) as per manufacturer's instructions. Fluorescence emission was read at two different wavelengths (665 nm and 620 nm) on a PheraStar. Results were calculated as ratio of pEGFR/total EGFR and then percentage of 0 μM control.

[2] = molecular target: T2, Phospho-EGFR (Tyr1068) in H1975 C797S cells (CRISPR-edited EGFR C797S) (Homo sapiens, UniProt P00533, C797S/L858R/T790M); test: HTRF pEGFR/total EGFR in H1975 C797S cells; format: cell-based; details: ratio pEGFR/total EGFR, compound 3 hours
T2 construct: host or cells: H1975 C797S (CRISPR-edited)
T2 sequence (P00533 25-1210 T790M/C797S/L858R): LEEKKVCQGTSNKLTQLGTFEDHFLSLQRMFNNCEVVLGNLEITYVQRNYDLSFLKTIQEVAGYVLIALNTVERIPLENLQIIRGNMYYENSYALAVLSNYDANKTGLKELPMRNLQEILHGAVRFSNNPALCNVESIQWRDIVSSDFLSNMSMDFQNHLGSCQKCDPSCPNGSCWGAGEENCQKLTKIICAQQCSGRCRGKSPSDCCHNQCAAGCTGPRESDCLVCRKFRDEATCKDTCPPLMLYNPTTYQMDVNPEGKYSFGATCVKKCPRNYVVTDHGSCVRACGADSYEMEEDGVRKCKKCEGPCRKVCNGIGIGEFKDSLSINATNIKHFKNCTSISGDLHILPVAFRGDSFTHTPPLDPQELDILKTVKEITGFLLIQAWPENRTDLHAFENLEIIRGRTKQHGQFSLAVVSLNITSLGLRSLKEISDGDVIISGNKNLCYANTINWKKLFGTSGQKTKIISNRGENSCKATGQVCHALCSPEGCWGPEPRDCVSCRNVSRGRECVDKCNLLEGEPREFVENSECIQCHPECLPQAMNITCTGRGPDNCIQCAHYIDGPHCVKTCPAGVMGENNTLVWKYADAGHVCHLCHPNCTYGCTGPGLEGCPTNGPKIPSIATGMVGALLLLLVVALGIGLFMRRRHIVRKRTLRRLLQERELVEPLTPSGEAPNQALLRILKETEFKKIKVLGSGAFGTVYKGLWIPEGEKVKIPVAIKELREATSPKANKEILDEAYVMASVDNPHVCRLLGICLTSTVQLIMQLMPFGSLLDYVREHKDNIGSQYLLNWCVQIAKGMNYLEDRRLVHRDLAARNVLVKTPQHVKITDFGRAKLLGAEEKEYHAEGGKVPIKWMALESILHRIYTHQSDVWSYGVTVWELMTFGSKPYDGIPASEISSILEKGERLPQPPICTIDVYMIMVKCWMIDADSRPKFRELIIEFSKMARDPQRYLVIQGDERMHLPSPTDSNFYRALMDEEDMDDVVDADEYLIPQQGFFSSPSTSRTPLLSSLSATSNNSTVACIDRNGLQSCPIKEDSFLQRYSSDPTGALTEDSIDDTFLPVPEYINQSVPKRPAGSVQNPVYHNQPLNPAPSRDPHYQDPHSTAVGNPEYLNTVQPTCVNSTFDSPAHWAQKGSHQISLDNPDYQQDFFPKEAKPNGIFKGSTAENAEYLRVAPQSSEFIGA
Description: as §1, with “[…]. Once” for “H1975 cells (ATCC CRL-5908) were plated at 20,000 cells per well in 96 well plates and placed at 37° C. 5% CO2. Once”, “buffer was” for “buffer is”, “Phospho-EGFR (Tyr1068)” for “Phospho-EGFR (Tyri068)”

[3] = molecular target: T3, Phospho-EGFR (Tyr1068) in A431 cells (Homo sapiens, UniProt P00533); test: HTRF pEGFR/total EGFR in A431 cells with EGF stimulation; format: cell-based; details: ratio pEGFR/total EGFR, compound 2.5 hours then 100 ng/ml EGF 30 mins
T3 construct: endogenous in cells; host or cells: A431
T3 sequence (P00533 25-1210): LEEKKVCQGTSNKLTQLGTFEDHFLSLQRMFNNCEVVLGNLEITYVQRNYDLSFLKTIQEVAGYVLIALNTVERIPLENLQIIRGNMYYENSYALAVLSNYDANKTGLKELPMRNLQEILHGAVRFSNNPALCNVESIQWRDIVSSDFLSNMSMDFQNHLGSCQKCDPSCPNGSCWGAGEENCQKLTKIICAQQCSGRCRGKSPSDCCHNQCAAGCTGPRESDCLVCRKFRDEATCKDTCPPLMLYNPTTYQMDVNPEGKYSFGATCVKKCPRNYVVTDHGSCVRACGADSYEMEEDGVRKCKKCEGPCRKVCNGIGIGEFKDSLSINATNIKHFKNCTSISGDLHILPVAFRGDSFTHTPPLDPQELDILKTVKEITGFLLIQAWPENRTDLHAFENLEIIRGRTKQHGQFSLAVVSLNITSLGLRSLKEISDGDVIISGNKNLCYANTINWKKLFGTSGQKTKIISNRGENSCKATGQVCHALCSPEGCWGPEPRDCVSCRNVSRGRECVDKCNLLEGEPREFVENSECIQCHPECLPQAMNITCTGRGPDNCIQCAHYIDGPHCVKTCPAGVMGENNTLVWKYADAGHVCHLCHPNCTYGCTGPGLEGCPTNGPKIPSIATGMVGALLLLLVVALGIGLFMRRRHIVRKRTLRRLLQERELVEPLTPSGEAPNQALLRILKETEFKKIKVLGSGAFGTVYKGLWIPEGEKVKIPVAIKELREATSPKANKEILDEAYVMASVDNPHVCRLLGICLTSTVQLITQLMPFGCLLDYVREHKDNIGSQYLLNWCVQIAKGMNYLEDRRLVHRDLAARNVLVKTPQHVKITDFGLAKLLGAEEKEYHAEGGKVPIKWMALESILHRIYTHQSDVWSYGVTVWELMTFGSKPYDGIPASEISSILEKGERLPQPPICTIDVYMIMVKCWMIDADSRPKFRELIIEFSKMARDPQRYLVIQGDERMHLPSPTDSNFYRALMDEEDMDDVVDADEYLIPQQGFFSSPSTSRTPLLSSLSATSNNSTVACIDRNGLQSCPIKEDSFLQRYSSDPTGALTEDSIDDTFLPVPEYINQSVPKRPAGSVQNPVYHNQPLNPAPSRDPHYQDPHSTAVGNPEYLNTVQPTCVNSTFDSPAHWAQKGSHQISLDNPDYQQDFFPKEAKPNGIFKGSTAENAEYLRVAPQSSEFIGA
Description: Cells were plated at 20,000 cells per well in 96 well plates and placed at 37° C. 5% CO2. Once adhered (after 24 h) cells were treated with compounds dissolved in DMSO at a final concentration of 0.1% DMSO in media. Compounds were diluted in media then added to cells for 2.5 hours in duplicate, 100 ng/ml EGF (ThermoFisher, PHG0311) was added to all compound treated cells as well as a control for 30 mins. Compound and media were removed from the cells, then 50 ul of HTRF lysis buffer was added (lysis buffer was diluted from 4× stock to 1× in DI water, with 1% blocking agent also added). Cells were lysed on a plate shaker (2000 rpm) for 30 minutes at room temperature. pEGFR expression was monitored using the Cisbio Phospho-EGFR (Tyr1068) cellular kit (64EG1PEH). Total EGFR expression was monitored using the Cisbio Total EGFR cellular kit (64NG1PEH) as per manufacturer's instructions. Fluorescence emission was read at two different wavelengths (665 nm and 620 nm) on a PheraStar. Results were calculated as ratio of pEGFR/total EGFR and then percentage of 0 μM control.

[4] = molecular target: CtermHisTag-mEGFR Wild type (Homo sapiens, UniProt P00533); test: biochemical
Sequence of CtermHisTag-mEGFR Wild type (P00533 whole entry): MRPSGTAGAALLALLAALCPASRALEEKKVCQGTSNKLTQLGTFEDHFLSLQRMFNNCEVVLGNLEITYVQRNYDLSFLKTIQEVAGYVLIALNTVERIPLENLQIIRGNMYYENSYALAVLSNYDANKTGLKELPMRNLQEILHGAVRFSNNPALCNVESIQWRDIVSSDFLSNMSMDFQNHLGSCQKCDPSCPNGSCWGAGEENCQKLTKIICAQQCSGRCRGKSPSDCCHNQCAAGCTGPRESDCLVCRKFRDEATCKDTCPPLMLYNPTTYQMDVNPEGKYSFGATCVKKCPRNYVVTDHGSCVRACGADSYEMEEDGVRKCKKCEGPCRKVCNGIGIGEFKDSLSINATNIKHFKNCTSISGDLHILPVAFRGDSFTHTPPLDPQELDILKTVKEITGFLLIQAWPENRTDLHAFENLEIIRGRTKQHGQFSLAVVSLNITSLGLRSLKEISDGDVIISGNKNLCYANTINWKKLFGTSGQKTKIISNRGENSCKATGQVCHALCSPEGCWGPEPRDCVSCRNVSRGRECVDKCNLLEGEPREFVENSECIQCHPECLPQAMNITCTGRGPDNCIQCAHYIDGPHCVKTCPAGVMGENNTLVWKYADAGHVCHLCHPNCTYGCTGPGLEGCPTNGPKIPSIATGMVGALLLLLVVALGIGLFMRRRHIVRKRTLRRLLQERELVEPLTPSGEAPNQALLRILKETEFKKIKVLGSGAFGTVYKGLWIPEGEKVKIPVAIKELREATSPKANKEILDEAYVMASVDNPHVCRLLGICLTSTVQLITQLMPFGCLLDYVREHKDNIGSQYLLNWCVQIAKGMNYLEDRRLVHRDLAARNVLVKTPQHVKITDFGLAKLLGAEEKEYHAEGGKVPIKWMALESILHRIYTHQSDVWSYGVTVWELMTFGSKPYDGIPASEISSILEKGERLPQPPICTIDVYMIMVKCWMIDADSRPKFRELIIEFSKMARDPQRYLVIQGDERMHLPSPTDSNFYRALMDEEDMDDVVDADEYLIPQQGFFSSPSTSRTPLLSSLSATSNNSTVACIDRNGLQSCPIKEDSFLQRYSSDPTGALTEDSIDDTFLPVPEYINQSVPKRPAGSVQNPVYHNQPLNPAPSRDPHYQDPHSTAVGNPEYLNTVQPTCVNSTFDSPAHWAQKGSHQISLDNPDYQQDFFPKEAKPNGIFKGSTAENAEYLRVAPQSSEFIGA

Row | SMILES | pIC50 [1] | pIC50 [2] | pIC50 [3] | pIC50 [4]
1 | C#Cc1c(-c2ccccc2Cl)c(=O)n(C)c2nc(Nc3ccc(OCCN(C)C)cc3)ncc12 [Example 129, 6-(2-chlorophenyl)-2-({4-[2-(dimethylamino)ethoxy]phenyl}amino)-5-ethynyl-8-methylpyrido[2,3-d]pyrimidin-7-one] | 6.00 to 6.30 | < 5.52 | 6.00 to 6.30 | > 6.00
2 | C#Cc1cc(=O)n([C@H]2CC[C@@H](NC(=O)CCCN(C)C)CC2)c2nc(Nc3ccc(N4CCN(C)CC4)cc3)ncc12 [Example 97, 4-(Dimethylamino)-N-[(1s,4s)-4-(5-ethynyl-2-{[4-(4-methylpiperazin-1-yl)phenyl]amino}-7-oxopyrido[2,3-d]pyrimidin-8-yl)cyclohexyl]butanamide] | 5.52 to 6.00 | 5.52 to 6.00 | < 5.52 | < 5.00
3 | C#Cc1cc(=O)n(C)c2nc(Nc3ccc(OCCN(C)C)cc3)ncc12 [Example 46, 2-({4-[2-(Dimethylamino)ethoxy]phenyl}amino)-5-ethynyl-8-methylpyrido[2,3-d]pyrimidin-7-one] | > 6.30 | > 6.30 | < 5.52 | 5.00 to 6.00
4 | C#Cc1cc(=O)n(-c2ccccc2)c2nc(Nc3ccc(N4CCC(N(C)C)CC4)cc3)ncc12 [Example 33, 2-({4-[4-(Dimethylamino)piperidin-1-yl]phenyl}amino)-5-ethynyl-8-phenylpyrido[2,3-d]pyrimidin-7-one] | > 6.30 | > 6.30 | 5.52 to 6.00 | > 6.00
5 | C#Cc1cc(=O)n([C@H]2CC[C@@H](NC(=O)CCC(=O)N(C)C)CC2)c2nc(Nc3ccc(N4CCN(C)CC4)cc3)ncc12 [Example 93, N,N-Dimethyl-N′-[(1s,4s)-4-(5-ethynyl-2-{[4-(4-methylpiperazin-1-yl)phenyl]amino}-7-oxopyrido[2,3-d]pyrimidin-8-yl)cyclohexyl]succinamide] | 6.00 to 6.30 | 5.52 to 6.00 | < 5.52 | 5.00 to 6.00
6 | C#Cc1cc(=O)n(C)c2nc(Nc3ccc(N4CCN(C)CC4)c(OCCc4ccccc4)c3)ncc12 [Example 214, 5-Ethynyl-8-methyl-2-((4-(4-methylpiperazin-1-yl)-3-phenethoxyphenyl)amino)pyrido[2,3-d]pyrimidin-7(8H)-one] | > 6.30 | > 6.30 | 5.52 to 6.00 | > 6.00
7 | C#Cc1cc(=O)n(C(C)C)c2nc(Nc3ccc(N4CCN(C)CC4)cc3)ncc12 [Example 76, 5-Ethynyl-8-isopropyl-2-{[4-(4-methylpiperazin-1-yl)phenyl]amino}pyrido[2,3-d]pyrimidin-7-one] | > 6.30 | 6.00 to 6.30 | < 5.52 | > 6.00
8 | C#Cc1cc(=O)n(CC2CCNC2=O)c2nc(Nc3ccc(N4CCN(C)CC4)cc3)ncc12 (stereo not shown) [Example 119, 3-[(5-ethynyl-2-{[4-(4-methylpiperazin-1-yl)phenyl]amino}-7-oxopyrido[2,3-d]pyrimidin-8-yl)methyl]pyrrolidin-2-one] | 6.00 to 6.30 | 6.00 to 6.30 | < 5.52 | < 5.00
9 | C#Cc1cc(=O)n(C)c2nc(Nc3cc(-c4cnn(C)c4)c(N4CCOCC4)cc3OC)ncc12 [Example 44, 5-Ethynyl-2-{[2-methoxy-5-(1-methylpyrazol-4-yl)-4-(morpholin-4-yl)phenyl]amino}-8-methylpyrido[2,3-d]pyrimidin-7-one] | 6.00 to 6.30 | 5.52 to 6.00 | < 5.52 | > 6.00
10 | C#Cc1cc(=O)n(C)c2nc(Nc3ccc(N4CCN(C)CC4)c(NC(=O)CC)c3)ncc12 [Example 51, N-[5-({5-Ethynyl-8-methyl-7-oxopyrido[2,3-d]pyrimidin-2-yl}amino)-2-(4-methylpiperazin-1-yl)phenyl]propanamide] | > 6.30 | > 6.30 | 5.52 to 6.00 | > 6.00
11 | C#Cc1c(-c2c(Cl)cccc2Cl)c(=O)n(C)c2nc(Nc3cccc(CO)c3)ncc12 [Example 125, 6-(2,6-dichlorophenyl)-5-ethynyl-2-{[3-(hydroxymethyl)phenyl]amino}-8-methylpyrido[2,3-d]pyrimidin-7-one] | < 5.52 | < 5.52 | < 5.52 | 
12 | C#Cc1cc(=O)n2c3nc(ncc13)Nc1ccc(N3CCN(C)CC3)c(c1)OC[C@@H]1CC[C@@H](C1)C2 [Example 233, (5^1S,5^3R)-3^5-Ethynyl-1^4-(4-methylpiperazin-1-yl)-3^7,3^8-dihydro-7-oxa-2-aza-3(2,8)-pyrido[2,3-d]pyrimidina-1(1,3)-benzena-5(1,3)-cyclopentanacycloheptaphan-3^7-one] | > 6.30 | > 6.30 |  | > 6.00
13 | C#Cc1cc(=O)n(C2CCCC2)c2nc(Nc3cccc(N(C)[C@H]4CC[C@@H](CS(C)(=O)=O)CC4)c3)ncc12 [Example 204] | < 5.52 | < 5.52 |  | > 6.00
14 | C=Cc1cc(=O)n(-c2ccc(OC)cc2OC)c2nc(Nc3ccccc3OC)ncc12 [Example 154, 8-(2,4-dimethoxyphenyl)-5-ethenyl-2-[(2-methoxyphenyl)amino]pyrido[2,3-d]pyrimidin-7-one] |  |  |  | < 5.00
15 | C#Cc1cc(=O)n(-c2ccccc2)c2nc(Nc3ccccc3CO)ncc12 [Example 41, 5-Ethynyl-2-{[2-(hydroxymethyl)phenyl]amino}-8-phenylpyrido[2,3-d]pyrimidin-7-one] |  |  |  | < 5.00
16 | C#Cc1cc(=O)n(-c2cccc(NS(C)(=O)=O)c2)c2nc(Nc3ccccc3OC)ncc12 [Example 57, N-(3-(5-Ethynyl-2-((2-methoxyphenyl)amino)-7-oxopyrido[2,3-d]pyrimidin-8(7H)-yl)phenyl)methanesulfonamide] |  |  |  | < 5.00
17 | C=CC(=O)Nc1cc(=O)n(-c2ccccc2)c2nc(Nc3ccccc3OC)ncc12 [Example 2, N-(2-((2-Methoxyphenyl)amino)-7-oxo-8-phenyl-7,8-dihydropyrido[2,3-d]pyrimidin-5-yl)acrylamide] |  |  |  | < 5.00
18 | C#Cc1c(Cc2ccccc2)c(=O)n(C)c2nc(Nc3ccc(N(C)CCN(C)C)cc3OC)ncc12 [Example 140, 6-benzyl-2-[(4-[[2-(dimethylamino)ethyl](methyl)amino]-2-methoxyphenyl)amino]-5-ethynyl-8-methylpyrido[2,3-d]pyrimidin-7-one] |  |  |  | 5.00 to 6.00
19 | C#Cc1cc(=O)n(C)c2nc(Nc3ccc(N(C)CCN(C)C)cc3OC)ncc12 [Example 42, 2-[(4-{[2-(Dimethylamino)ethyl](methyl)amino}-2-methoxyphenyl)amino]-5-ethynyl-8-methylpyrido[2,3-d]pyrimidin-7-one] |  |  |  | 5.00 to 6.00
20 | C#Cc1cc(=O)n(-c2ccccc2)c2nc(Nc3ccccc3)ncc12 [Example 5] |  |  |  | 5.00 to 6.00
21 | C#Cc1cc(=O)n(C2CCCC2)c2nc(Nc3ccccc3N3CCCC(CS(C)(=O)=O)C3)ncc12 (stereo not shown) [Example 202, 8-Cyclopentyl-5-ethynyl-2-({2-[3-(methanesulfonylmethyl)piperidin-1-yl]phenyl}amino)pyrido[2,3-d]pyrimidin-7-one] | < 5.52 | < 5.52 |  | < 5.00
22 | C#Cc1cc(=O)n(C)c2nc(Nc3ccccc3OC)ncc12 [Example 48, 5-Ethynyl-2-[(2-methoxyphenyl)amino]-8-methylpyrido[2,3-d]pyrimidin-7-one] |  |  |  | < 5.00
23 | C#Cc1c(-c2ccccc2Cl)c(=O)n(C)c2nc(Nc3ccccc3)ncc12 [Example 124, 6-(2-chlorophenyl)-5-ethynyl-8-methyl-2-(phenylamino)pyrido[2,3-d]pyrimidin-7-one] |  |  |  | < 5.00
